Values quoted from earlier work as cited in patent US20070281997A1, “TREATMENT OF HOT FLASHES USING MUSCARINIC RECEPTOR ANTAGONISTS” (priority 2006, published 2007).

System: hot flashes
Details: men receiving androgen deprivation therapy; previous reports, pilot studies

CC(=O)[C@@]1(O)CC[C@H]2[C@@H]3C=C(C)C4=CC(=O)CC[C@]4(C)[C@H]3CC[C@@]21C [megasterol]
efficacy to reduce hot flashes: efficacious

Fc1ccc([C@@H]2CCNC[C@H]2COc2ccc3c(c2)OCO3)cc1 [paroxetine]
efficacy to reduce hot flashes: shown efficacy

COc1ccc(C(CN(C)C)C2(O)CCCCC2)cc1 (stereo not drawn) [venlafaxine]
efficacy to reduce hot flashes: shown efficacy
